Laboratory results from the NIST ThermoML archive (doi:10.1021/acs.jced.8b00120).
± gives the expanded uncertainty stated by the source.

What was measured:
[1] = 298.15 K; 101.33 kPa; Liquid; Buoyancy - hydrostatic balance
[2] = refractive index (Na D-line) (dimensionless); conditions: 298.15 K; 101.33 kPa; Liquid; Standard Abbe refractometry

SMILES	mass density [1] [kg/m3]	refractive index [2]
CO [methanol]	791.814 ± 10	1.3279 ± 0.0011
O [water]		1.3324 ± 0.001
CC#N [acetonitrile]	785.712 ± 10	1.3452 ± 0.001
CC(=O)CC(C)C [4-methylpentan-2-one]	800.589 ± 10	1.3964 ± 0.0011
CN(C)C=O [dimethylformamide]	944.689 ± 10	1.4279 ± 0.0011
CCCCO [butan-1-ol]	805.881 ± 10	1.3975 ± 0.0011
CC(C)CO [2-methyl-1-propanol]	801.652 ± 10	1.394 ± 0.0011
CC(C)c1ccccc1 [isopropylbenzene]	864.115 ± 10	1.4907 ± 0.0011
